In BigSolDB 2.1:

O=C1O[B-]2(OC1=O)OC(=O)C(=O)O2.[Li+]
solubility (mole fraction)
Details	293.15 K	303.15 K	313.15 K	323.15 K	333.15 K	343.15 K	353.15 K	363.15 K
in DMF	0.114	0.0838	0.0658	0.0542	0.0404	0.0352	0.0323	0.023
in DMSO	0.148	0.139	0.127	0.113	0.0989	0.0869	0.0774	0.0666
in THF	0.0479	0.0336	0.0269	0.0217	0.0172	–	–	–
in acetonitrile	0.00893	0.00869	0.00803	0.00653	0.00566	0.00297	–	–
in gamma-butyrolactone	0.1	0.0796	0.0544	0.0372	0.0248	0.0163	0.00786	0.00503
in propylene carbonate	0.0393	–	0.0312	0.0214	0.0106	0.00574	0.00218	0.00132
